The results in this text go back to US20230340127A1, “METHODS AND COMPOSITIONS FOR CANCER TREATMENT BY INHIBITION OF FBXO44” (Sanford Burnham Prebys Medical Discovery Institute, priority 2022, published 2023).

Data set [1] has as its system HMECs and primary astrocytes. Put plainly: Viability of normal cells after F5446 treatment. The format is cell-based, human. The following applies: F5446 for 48 hrs (FIG. 9G). The method, then:
To assess whether this epigenetic regulatory pathway could potentially be targeted for cancer treatment, SUV39H1 and its chemical inhibitor F5446 were used to perform experiments. IF, qRT-PCR, and growth curve experiments were performed as described in previous examples. Human mammary epithelial cells (HMECs) and primary astrocytes were also used in the experiments. HMECs (Lonza, #CC-2551) were cultured in MEGM BulletKit Medium (Lonza, #CC-3150). Primary astrocytes were cultured Astrocyte Medium (ScienCell, #1801) and cells were incubated at 37° C. in 5% CO2. All cells were incubated at 37° C. in 5% CO2. The cell cultures were authenticated by short tandem repeat (STR) analysis.
To establish the potential of a therapeutic index for FBXO44/SUV39H1, the role of FBXO44/SUV39H1 in RE silencing in normal cells was investigated using human mammary epithelial cells (HMECs) or primary astrocytes. HMECs and primary astrocytes were cultured and treated with F5446 as described in example 17. Growth curve, immunoblotting, IF, ChIP experiments were performed as described in previous examples.

Another data set concerns 4T1 tumors. As to the kind of experiment: 4T1 mammary tumors in syngeneic immunocompetent mice, F5446 plus anti-PD-1 antibody. The format is in vivo, mouse. The method, then:
4T1 tumor experiment: 10^5 4T1 cells were inoculated into the mammary fat pads of 6- to 8-week-old female BALB/c mice (The Jackson Laboratory). Tumor size was measured twice weekly. After 22 days, mice were euthanized and portions of each tumor processed for flow cytometry and histological analysis. For antibody treatments, mice were administered 200 μg rat IgG2a isotype control (BioXCell no. BP0089) or anti-PD-1 (BioXCell no. BP0273) antibody via i.p. injection on days 15, 17, 19, 21 and 23 post-inoculation of 4T1 cells. For combination treatments, mice were administered vehicle (10% Cremophor EL in PBS) or F5446 at 10 mg/kg body weight via i.p. injection on days 12, 14, 16, 18, 20, and 22 post-inoculation of cells and administered 200 μg rat IgG2a isotype (control) or anti-PD-1 antibody via i.p. injection on days 15, 17, 19, 21, and 23 post-inoculation of 4T1 cells. Mouse survival was monitored with tumor volume exceeding 2000 mm^3, weight loss>20%, and decreasing behavioral conditions considered as endpoints.
To investigate the effects of pharmacologically targeting SUV39H1, F5446, on tumor growth and immunotherapy response, experiments using mouse model were performed as described in previous examples. Mice were also treated with F5446. Growth curve, survival curve, IHC, and qRT-PCR experiments were performed as described in previous examples.

For data set [2], the system named is chromatin associated H3K9me3 modifications in MDA-MB-231 cells. As to the kind of experiment: Immunofluorescence of chromatin associated H3K9me3 after F5446 treatment. The format is cell-based, human. The following applies: vehicle or F5446 for 48 hrs, IF (FIG. 10E). The protocol:
Immunofluorescence (IF): IF was performed to detect chromatin associated H3K9me3 in siRNA of FBXO44 or control. Briefly, cells were grown on Laminin-coated coverslips (neuVitro no. GG-12-laminin), washed twice with cold PBS, and then fixed with 4% paraformaldehyde for 20 min at 25° C. followed by permeabilization with 0.5% Triton X-100 in PBS for 5 min. Cells were fixed with chilled methanol for 5 min at −20° C. After 3×10 min washes in PBS, cells were incubated in blocking buffer (10 mM Tris-Cl [pH 7.5], 120 mM KCl, 20 mM NaCl, 0.5 mM EDTA, 0.1% Triton X-100, 10% milk, 2% BSA) overnight at 4° C. The relevant primary antibodies diluted in blocking buffer were then added. Specifically, 1:500 dilution for anti-H3K9me3 (Abcam no. ab8898). Cells were washed 3×10 min with KCMT buffer (10 mM Tris-Cl [pH 7.5], 120 mM KCl, 20 mM NaCl, 0.5 mM EDTA, 0.1% Triton X-100) and incubated with Alexa Fluor 488-labeled anti-rabbit (Thermo Fisher Scientific no. A-21441) or Alexa Fluor 594-labeled anti-mouse (Cell Signaling Technologies no. 8890) antibodies at 1:500 dilution for 1 hr at 25° C. After 3×10 min washes with KCMT buffer, cells were stained with DAPI (Thermo Fisher Scientific no. D1306), coverslips mounted with anti-fade mounting medium (Vector Laboratories no. H-1000), and slides examined by fluorescence microscopy (Nikon Inverted TE300) or confocal microscopy (Zeiss LSM 710 NLO). […]

The test system of data set [3] is cancer cell lines and patient-derived glioblastoma cultures. As to the kind of experiment: Viability of cancer cells after F5446 treatment. The format is cell-based, human. The following applies: F5446 for 48 hrs (FIG. 9G). The method, then: Cell lines and culture conditions: all cancer cell lines were purchased from the American Tissue Culture Collection (ATCC) and grown in recommended culture media. Specifically, MDA-MB-231, BT-549, MCF7, A549, and H446 cells were cultured in RPMI 1640 (Corning), HEK293T, HEK293FT, and HeLa cells were cultured in DMEM (Corning), MDA-MB-231-luc cells were cultured in MEM (Corning), U2OS and HCT116 cells were cultured in McCoy's 5A (Corning). The above media were supplemented with 10% fetal bovine serum (FBS), 2 mM glutamine, and 100 U/mL penicillin and streptomycin. Patient-derived glioma stem cells (GSCs) were obtained (Xie et al., 2018) and cultured in Neurobasal medium (Thermo Fisher Scientific, #11360070) supplemented with B27 without vitamin A (Thermo Fisher Scientific, #A3353501), EGF, and bFGF (20 ng/mL each; R&D Systems), sodium pyruvate (Thermo Fisher Scientific, #11360070), and GlutaMAX (Thermo Fisher Scientific, #35050061). All cells were incubated at 37° C. in 5% CO2. The cell cultures were authenticated by short tandem repeat (STR) analysis.
To assess whether this epigenetic regulatory pathway could potentially be targeted for cancer treatment, SUV39H1 and its chemical inhibitor F5446 were used to perform experiments. IF, qRT-PCR, and growth curve experiments were performed as described in previous examples. […]

As for `COC(=O)c1cc2c(n1S(=O)(=O)c1ccc(Cl)cc1)C(=O)C(=O)c1[nH]cc(C(=O)OCc3ccccc3)c1-2` [F5446], the “HMEC and astrocyte viability” value in data set [1] was “minimally affected”. Moreover, the “sensitivity of 4T1 tumors to anti-PD-1 therapy” value in the data set with 4T1 tumors (F5446 10 mg/kg i.p. combined with 200 μg anti-PD-1 antibody i.p. (FIGS. 12M-12O)) is “enhanced”. The mouse survival entry in the data set with 4T1 tumors (F5446 combined with anti-PD-1 therapy, 4T1 tumors (FIG. 12O)) is listed as “increased”. Moreover, in data set [2], the “chromatin-associated H3K9me3” value is given as “reduced”. Further, the “survival of cancer cell lines and patient-derived glioblastoma cultures” value in data set [3] was “reduced”.
